From ChEMBL document CHEMBL5149985, “Discovery of cytotoxic natural products from Red Sea sponges: Structure and synthesis” (Eur J Med Chem, 2021)

Tests used:
[1] = system: HeLa; assay: Antiproliferative activity against human HeLa cells assessed as cell viability measured after 24 hrs by MTT assay; format: functional, cell-based
[2] = system: MDA-MB-231; assay: Antimigratory activity against human MDA-MB-231 cells assessed as reduction in cell growth measured after 48 hrs by SRB assay; format: functional, cell-based; conditions: MDA-MB-231, 48 h
[3] = system: MDA-MB-231; assay: Anticancer activity against human MDA-MB-231 cells assessed as cell viability measured after 24 hrs by MTT assay; format: functional, cell-based; conditions: MDA-MB-231, 24 h
[4] = system: HCT-116; assay: Antiproliferative activity against human HCT-116 cells assessed as cell viability measured after 24 hrs by MTT assay; format: functional, cell-based; conditions: HCT-116, 24 h
[5] = system: HCT-116; assay: Anticancer activity against human HCT-116 cells assessed as inhibition of cell growth by MTS assay; format: functional, cell-based
[6] = system: HeLa; assay: Anticancer activity against human HeLa cells assessed as inhibition of cell growth incubated for 24 hrs by MTT assay; format: functional, cell-based
[7] = system: MCF7; assay: Anticancer activity against human MCF7 cells assessed as inhibition of cell growth incubated for 24 hrs by MTT assay; format: functional, cell-based; conditions: MCF7, 24 h
[8] = system: A549; assay: Anticancer activity against human A549 cells assessed as inhibition of cell growth incubated for 24 hrs by MTT assay; format: functional, cell-based; conditions: A549, 24 h
[9] = system: HeLa; assay: Anticancer activity against human HeLa assessed as inhibition of cell growth incubated for 48 hrs by SRB assay; format: functional, cell-based
[10] = system: HepG2; assay: Anticancer activity against human HepG2 cells assessed as inhibition of cell growth incubated for 96 hrs; format: functional, cell-based; conditions: HepG2, 96 h
[11] = system: PC-3; assay: Anticancer activity against human PC-3 cells assessed as inhibition of cell growth incubated for 96 hrs; format: functional, cell-based; conditions: PC-3, 96 h
[12] = system: A549; assay: Anticancer activity against human A549 cells assessed as inhibition of cell growth incubated for 96 hrs; format: functional, cell-based; conditions: A549, 96 h
[13] = system: MCF7; assay: Anticancer activity against human MCF7 cells assessed as inhibition of cell growth incubated for 48 hrs by ELISA based SRB assay; format: functional; conditions: MCF7, 48 h
[14] = system: HepG2; assay: Anticancer activity against human HepG2 cells assessed as inhibition of cell growth incubated for 48 hrs by ELISA based SRB assay; format: functional; conditions: HepG2, 48 h
[15] = system: HCT-116; assay: Anticancer activity against human HCT-116 cells assessed as inhibition of cell growth incubated for 72 hrs by MTT assay; format: functional, cell-based; conditions: HCT-116, 72 h
[16] = system: HCT-116; assay: Anticancer activity against human HCT-116 cells assessed as reduction in cell viability measured after 72 hrs by MTT assay; conditions: HCT-116, 72 h
[17] = system: HeLa; assay: Anticancer activity against human HeLa cells assessed as reduction in cell viability measured after 72 hrs by MTT assay
[18] = system: MDA-MB-231; assay: Anticancer activity against human MDA-MB-231 cells assessed as reduction in cell viability measured after 72 hrs by MTT assay; format: functional, cell-based; conditions: MDA-MB-231, 72 h
[19] = system: L5178Y; assay: Anticancer activity against mouse L5178Y cells assessed as reduction in cell growth by [3H] Thymidine assay relative to control; format: functional, cell-based
[20] = system: L5178Y; assay: Anticancer activity against mouse L5178Y cells assessed as reduction in cell growth at 3 uG by [3H] Thymidine assay relative to control; format: functional; conditions: dose 3 µg
[21] = system: L5178Y; assay: Anticancer activity against mouse L5178Y cells assessed as reduction in cell growth at 10 uG by [3H] Thymidine assay relative to control; format: functional; conditions: dose 10 µg
[22] = system: MDA-MB-231; assay: Anticancer activity against human MDA-MB-231 cells assessed as cell growth inhibition incubated for 48 hrs by MTT assay; format: functional, cell-based; conditions: MDA-MB-231, 48 h
[23] = system: BT-474; assay: Anticancer activity against human BT-474 cells assessed as cell growth inhibition incubated for 48 hrs by MTT assay; format: functional, cell-based; conditions: BT-474, 48 h
[24] = system: T47D; assay: Anticancer activity against human T47D cells assessed as cell growth inhibition incubated for 48 hrs by MTT assay; format: functional, cell-based
[25] = system: MCF7; assay: Anticancer activity against human MCF7 cells assessed as cell growth inhibition incubated for 48 hrs by MTT assay; format: functional, cell-based; conditions: MCF7, 48 h
[26] = system: SK-BR-3; assay: Anticancer activity against human SK-BR-3 cells assessed as cell growth inhibition incubated for 48 hrs by MTT assay; format: functional, cell-based; conditions: SK-BR-3, 48 h
[27] = system: HepG2; assay: Anticancer activity against human HepG2 cells assessed as inhibition of cell growth incubated for 48 hrs by crystal violet staining based microplate reader analysis; format: functional; conditions: HepG2, 48 h

COC1=C(Br)C[C@]2(OC=C1Br)ON=C(C(=O)NCCCOc1c(Br)cc(CCNC=C3C(=O)C=CC3=O)cc1Br)[C@@H]2O
IC50 [1]: 2.1 µM
IC50 [2]: 0.31 µM
IC50 [3]: 0.29 µM
IC50 [4]: 5.1 µM

CO[C@@H]1C[C@H](C)O[C@@H](C(O)C[C@H](C)[C@H](O)[C@H](C)[C@H]2OC(=O)/C=C/C(C)=C/C[C@H](O)C[C@H]3C=CC[C@@H](C[C@H](OC)[C@@H](C)[C@@H](O)C[C@@H](O)[C@H](C)[C@@H]([C@@H](C)[C@@H](O)[C@@H](C)CC[C@H]4C[C@H](OC)C[C@H](C)O4)OC(=O)/C=C/C(C)=C/C[C@H](O)C[C@@H]4C=CC[C@@H](C[C@H](OC)[C@@H](C)[C@@H](O)C[C@@H](O)[C@@H]2C)O4)O3)C1 (some centres not stated)
IC50 [5]: 0.0056 µM

C#C/C=C\CCCCCCCCCCC#CCCC(=O)NCCc1c[nH]c2ccccc12
IC50 [6]: 17.4 µM
IC50 [7]: 34.1 µM
IC50 [8]: 25.9 µM

CCOC(=O)Cc1c(O)cc(Br)c(O)c1Br
IC50 [9]: 13.3 µM
IC50 [1]: 13.3 µM

CO[C@H]1C[C@H](CC[C@H](C)[C@H](O)[C@H](C)[C@H]2OC(=O)/C=C/C(C)=C/C[C@@H](O)C[C@H]3C=CC[C@@H](C[C@H](OC)[C@@H](C)[C@@H](O)C[C@@H](O)[C@H](C)[C@@H]([C@@H](C)[C@@H](O)[C@@H](C)CC[C@H]4C[C@H](OC)C[C@H](C)O4)OC(=O)/C(C)=C/C[C@H](O)C[C@@H]4C=CC[C@@H](C[C@H](OC)[C@@H](C)[C@@H](O)C[C@@H](O)[C@@H]2C)O4)O3)O[C@@H](C)C1
IC50 [5]: 0.365 µM

CC(=O)O[C@@H]1OC=C2C1[C@]1(C)C(C[C@@H]2OC(C)=O)[C@]2(C)CCC3C(C)(C)CCC[C@]3(C)C2C[C@H]1O (some centres not stated)
IC50 [10]: 0.041 µM
IC50 [11]: 0.077 µM
IC50 [12]: 0.027 µM

CCCCCCCCCCCCCCCCCC[C@@H](O)C(=O)N[C@@H](CO)[C@H](O)[C@H](O)CCCCCCCCCCCCCCCC
IC50 [13]: 28.3 µM
IC50 [14]: 25.4 µM

CC(C)[C@@H](C)/C=C/[C@@H](C)[C@H]1CC[C@@]23O[C@@]24C(=O)C[C@H]2CC(=O)CC[C@]2(C)[C@H]4CC[C@]13C
IC50 [15]: 45 µM

O=c1[nH]cc(F)c(=O)[nH]1 [FLUOROURACIL]
IC50 [16]: 4.6 µM
IC50 [17]: 12.3 µM
IC50 [18]: 13 µM

C#C/C=C\CCCCCCCCC#CCCC(=O)NCCc1ccccc1
IC50 [6]: 4.1 µM
IC50 [7]: 19.4 µM
IC50 [8]: 30 µM

CC1(C)CCC[C@]2(C)[C@H]3C[C@@H](O)[C@]4(C)C5=C(COC5=O)[C@@H](O)C[C@H]4[C@]3(C)CC[C@@H]12
IC50 [19]: 0.0075 µM
inhibition (INH) [20]: 40.5%
inhibition (INH) [21]: 55.3%

O[C@]12CCCCCC[C@@H]3CCN4CCC[C@](O)(CCCCCC[C@@H]5CCN(CCC1)[C@H]2O5)[C@@H]4O3
IC50 [22]: 15.2 µM
IC50 [23]: 15.2 µM
IC50 [24]: 46.1 µM
IC50 [25]: 8.5 µM
IC50 [26]: 18.3 µM

CC(C)[C@]1(O)CC[C@@]2(C)C[C@](O)([C@H]3CC[C@@H]4[C@]3(C)CC[C@H]3OC(C)(C)[C@H](O)C(=O)[C@@H](O)[C@]43C)CC[C@@H]21
IC50 [27]: 0.023 µM
